From patent US20080113938A1, “ACCELERATOR FOR MINERAL ABSORPTION AND USE THEREOF” (KABUSHIKI KAISHA HAYASHIBARA SEIBUTSU KAGAKU KENKYUJO, priority 2003, published 2008)

Assays:
[1] = Remaining cyclic tetrasaccharide in contents of alimentary canal and excrement of rats; assay type: in vivo, Wister rats; settings: for Remaining percentage of cyclic tetrasaccharide in content of appendix / Remaining percentage of cyclic tetrasaccharide in content of intestinum ileum / Remaining percentage of cyclic tetrasaccharide in excrement: relative to chromium marker
Excerpt: Forty of Wister rats weighing 110 to 120 g (five-weeks aged male, commercialized by Charles River Japan Inc., Yokohama, Japan) were bred with a feed containing ingredients (%) shown in Table 1 for one week in order to be familiarized. The familiarized rats were randomly divided into four groups with ten rats each. Each group was experimentally bred for eight weeks with either a feed without cyclic tetrasaccharide shown in Table 1 (hereinafter, it is called as “basic feed”), or another feed of basic feed supplemented with 1%, 2% or 5% on a dry solid basis, of cyclic tetrasaccharide in a crystalline anhydrous powder form with a purity of 99.5%, prepared in the following Example A-3. These basic feed and three kinds of feeds with cyclic tetrasaccharide were prepared to contain 44.75% of the total amount of cyclic tetrasaccharide and corn starch in each feed. From one week before the end of the breeding test, in order to determine the metabolism of calcium, magnesium, iron, sodium, potassium and phosphorus (hereinafter, may be called “minerals” in all), rats in the all groups were fed with the four types of feeds supplemented with 0.5% of chromium oxide as a non-absorbed marker for the minerals. The rats were bred at 25° C. in a manner of freely allowing to take feeds and water under a condition of 12 hours regular interval between of light and shade. After completion of experimental breeding, all rats were individually weighed to calculate the average of weight and further calculate the rate of increased weight for each group.
Two days before the end of the breeding test, rats were placed into a gauge for measuring metabolism to collect their excrement in two days. The resulting excrement was subjected to the measurement of the contents of cyclic tetrasaccharide, each mineral, and chromium. After the breeding test, the rats were anatomized in an anesthetized condition to take out their alimentary canals including jejunum, intestinum ileum, appendix and colon/rectum. After the resulting alimentary canals were weighed, their contents were also weighed and subjected to the measurement of the amount of cyclic tetrasaccharide, minerals and chromium. The rats, which had been taken out their alimentary canals, were dislocated at their cervical vertebrae and taken out their femurs from right legs. The resulting femurs were subjected to the measurement of the amount of ashes, calcium, magnesium and phosphorus. The following(s) explain the methods of quantitative analysis of cyclic tetrasaccharide and the methods of measurement of minerals and chromium.
One gram of a feed was admixed with 5 ml of 80% ethanol heated at 85° C. under reflux for 15 minutes to extract saccharides. The resulting saccharide sample was subjected to TMS derivatization in a usual manner. Three microliters of the sample was applied to a gas chromatography (“GC-16™”, commercialized by Shimazu Corporation, Kyoto, Japan) equipped with OV-17 packed column (“2% Silicone, OV-17 Chromosorb W/AW DMSC 80-100 mesh, 3 mmID×2 m, SUS”, produced by GL Science Corporation). The inner column temperature was kept at 160° C. for two minutes, and heated up to 320° C. at a rate of 7.5° C./min. The amount of cyclic tetrasaccharide was quantified by using nitrogen gas as a carrier (35 ml/min). While, in order to quantify the amounts of the contents of jejunum, intestinum ileum, appendix, colon/rectum and excrement, 0.05 g of each sample was weighed in a micro tube for gas chromatography and dried in a desiccator with phosphorus pentoxide. The resulting samples were subjected to TMS derivatization in a usual manner and quantified by gas chromatography.
The remaining percentages (%) were calculated using the following numerical formula, based on the rate of the amount of cyclic tetrasaccharide to chromium in each feed and the rate of those in the contents or excrement in consideration of that chromium is never absorbed by living bodies; […]

[2] = tested on: reversed canal sac of jejunum; assay: Calcium absorption in reversed canal sac, jejunum; assay type: cell-based, Wister rats
Experimental: Experiment 1 confirmed that cyclic tetrasaccharide promotes mineral absorption in alimentary canal of rat concretely in intestinum ileum or its upper alimentary canal. The following experiment was carried out in order to determine a part of alimentary canal, cyclic tetrasaccharide acts on to promote mineral absorption. Twenty heads of Wister rats (nine week aged male, commercialized by Charlesriver Corporation, Kanagawa, Japan) were bred for three days with a usual solid feed for rats. Under the anesthetization with ether, alimentary canal was taken out from each rat which had been bled from a jugular vein and treated by abdominal operation. Each alimentary canal was divided into jejunum, intestinum ileum and colon/rectum and washed with physiological saline to remove the content. The resulting jejunum specimen, intestinum ileum specimen or colon/rectum specimen was cut off to prepare each midsection sized with about 10 cm in length. The resulting midsection of each specimen was reversed using a glass rod and immersed in a physiological saline babbled with gas consisting of 95% oxygen and 5% carbon dioxide. The resultant was cut into pieces sized with 5 cm in length and each piece was tied with a suture thread at both ends to prepare a reversed canal sac, and injected with about 0.5 ml of an internal sac solution containing 30 mM Tris-HCl buffer (pH7.4), 125 mM sodium chloride, 4 mM potassium chloride, 10 mM glucose and 1.25 mM calcium chloride (dihydrate) with a syringe and weighed. The resulting sac was immersed in an external sac solution (being bubbled with the gas consisting of 95% oxygen and 5% carbon dioxide) containing 50 mM, 100 mM or 200 mM of the same cyclic tetrasaccharide to Experiment 1 in the above solution containing 30 mM Tris-HCl buffer (pH7.4), 125 mM sodium chloride, 4 mM potassium chloride, 10 mM glucose and 1.25 mM calcium chloride (dihydrate). At 15 or 30 minutes after the immersion, the reversed canal sac was taken out from the solution and washed with distilled water. The internal sac solution was collected from the resulting sac and admixed with distilled water to give a final volume of 25 ml. The resulting solution was subjected to a calorimetric measurement of calcium content using “CALCIUM TEST C WAKO™” (commercialized by Wako Pure Chemicals Corporation, Osaka, Japan). As a negative control, an external sac solution without saccharides. As a positive control, an external sac solution containing 200 mM maltitol, reported to have the effect on promoting mineral absorption though intestinal canal, instead of cyclic tetrasaccharide were prepared and carried out in the same manner. Speed of calcium absorption (nmol/min·cm^2) and its relative values defining the value of negative control as 100 were calculated.

[3] = 1% cyclic tetrasaccharide in feed
[4] = 2% cyclic tetrasaccharide in feed
[5] = 5% cyclic tetrasaccharide in feed
[6] = feed supplemented with 1%, 2% or 5% of cyclic tetrasaccharide
[7] = 50 mM saccharide in external sac solution
[8] = 100 mM saccharide in external sac solution
[9] = 200 mM saccharide in external sac solution

Amount of cyclic tetrasaccharide in content of appendix [1, 3]: 0.0 mg/g
Amount of cyclic tetrasaccharide in content of intestinum ileum [1, 3]: 60.5 mg/g
Amount of cyclic tetrasaccharide in excrement [1, 3]: 0.0 mg/g
Remaining percentage of cyclic tetrasaccharide in content of appendix [1, 3]: 0%
Remaining percentage of cyclic tetrasaccharide in content of intestinum ileum [1, 3]: 95%
Remaining percentage of cyclic tetrasaccharide in excrement [1, 3]: 0%
Amount of cyclic tetrasaccharide in content of appendix [1, 4]: 0.0 mg/g
Amount of cyclic tetrasaccharide in content of intestinum ileum [1, 4]: 184.1 mg/g
Amount of cyclic tetrasaccharide in excrement [1, 4]: 0.0 mg/g
Remaining percentage of cyclic tetrasaccharide in content of appendix [1, 4]: 0%
Remaining percentage of cyclic tetrasaccharide in content of intestinum ileum [1, 4]: 95%
Remaining percentage of cyclic tetrasaccharide in excrement [1, 4]: 0%
Amount of cyclic tetrasaccharide in content of appendix [1, 5]: 0.0 mg/g
Amount of cyclic tetrasaccharide in content of intestinum ileum [1, 5]: 298.0 mg/g
Amount of cyclic tetrasaccharide in excrement [1, 5]: 0.0 mg/g
Remaining percentage of cyclic tetrasaccharide in content of appendix [1, 5]: 0%
Remaining percentage of cyclic tetrasaccharide in content of intestinum ileum [1, 5]: 90%
Remaining percentage of cyclic tetrasaccharide in excrement [1, 5]: 0%
cyclic tetrasaccharide in the appendix and excrement [1, 6]: not detected at all
cyclic tetrasaccharide remained up to intestinum ileum without digestion [1, 6]: at least 90%
Compound: OC[C@H]1O[C@@H]2OC[C@H]3O[C@H](O[C@@H]4[C@@H](O)[C@@H](OC[C@H]5O[C@H](O[C@H]([C@H]2O)[C@@H]1O)[C@H](O)[C@@H](O)[C@@H]5O)O[C@H](CO)[C@H]4O)[C@H](O)[C@@H](O)[C@@H]3O [cyclic tetrasaccharide, cyclo{>6)-α-D-glucopyranosyl-(1>3)-α-D-glucopyranosyl-(1>6)-α-D-glucopyranosyl-(1>3)-α-D-glucopyranosyl-(1>}]
Absorption speed of calcium in alimentary canal sac, Jejunum [2, 7]: 26.5 *※ nmol/min · cm^2
Relative value of calcium absorption speed (control = 100), Jejunum [2, 7]: (124)
Absorption speed of calcium in alimentary canal sac, Jejunum [2, 8]: 37.6 *※ nmol/min · cm^2
Relative value of calcium absorption speed (control = 100), Jejunum [2, 8]: (176)
Absorption speed of calcium in alimentary canal sac, Jejunum [2, 9]: 39.0 *※ nmol/min · cm^2
Relative value of calcium absorption speed (control = 100), Jejunum [2, 9]: (183)
promotion of calcium absorption in jejunum ([2]; reversed sac): strongly promoted
